Laboratory results published in patent US20150038541A1, “COMPOSITION AND METHODS FOR CELL MODULATION” (APOSIGNAL BIOSCIENCE LLC, priority 2012, published 2015).

Columns and labels:
T47D cells = assay: MTS cell viability of breast cancer T47D cells, bortezomib with or without AS-7; type: cell-based, human; conditions: 10 μM AS-7, data not shown
Experimental: Breast cancer derived cell lines, T47D and 159C, were seeded in a 96 well tissue culture plate (2000 cells per well). The significance of these two lines of breast cancer derived cell lines is that the T47D cells positive for three markers used to optimize the chemotherapeutic treatment, namely HER2 receptor, estrogen receptor, and progesterone receptor. By contrast to the T47D cells, the 159C cells are negative for the three markers. The compounds, 10 μM AS-7 and a range of bortezomib (BioVision, Inc., Milpitas, Calif.) concentrations were added the following day. After 48 hours, MTS was added and absorbance was measured at 490 nm.

Melanoma A2620 cells [1] = assay: Cell proliferation (growth rate, crystal violet) of melanoma A2620 cells with AS-7 by itself; type: cell-based, human; conditions: 10 μM AS-7, vehicle doubling time 2.5 days
Experimental: (§1) To examine the effect of AS-7 on the growth of several different cell lines, AS-7 at 10 μM was added to the culture medium the day after seeding the cells. The following cell lines were used to determine the effect of AS-7 on the rate of proliferation: HeLa, melanoma A2620, ovarian A2780, and breast T47D. All cell line were grown in culture medium (RPMI 1640 for the breast cancer cells and Dulbecco's modified Eagle's medium for the other cell lines) containing 10% heat inactivated fetal bovine serum without antibiotics (penicillin and streptomycin). […] The doubling times in HeLa, melanoma, ovarian and breast cancer derived cells were 0.9, 2.5, 1.0, and 1.4 days, respectively. AS-7 increased the doubling times of the HeLa, melanoma, ovarian, and breast cancer derived cells by 1.3, 1.3, 1.6, and 3.1 fold, respectively (FIGS. 11 through 14).

Melanoma A2620 cells [2] = assay: Crystal violet cell viability of melanoma A2620 cells, bortezomib with or without AS-7 (72 hours); type: cell-based, human; conditions: 10 μM AS-7
Experimental: (§2) Melanoma A2620 cells were seeded in a 96 well tissue culture plate (2000 cells per well). The compounds, 10 μM AS-7 and bortezomib at the concentrations indicated in FIG. 8 were added the following day. […] Values are relative to controls that contained only the vehicle in which the drugs were dissolved. Vehicle had no effect on cell viability.

HeLa cells [3] = assay: Glucose utilization and acid production in HeLa cell culture medium; type: cell-based, human; conditions: 10 μM AS-7, after 5 days
Experimental: FIG. 19 illustrates that AS-7 increases glucose utilization and acid production in HeLa cells. HeLa cells were cultured (100 mm diameter plates) in medium containing 4.5 mg/ml glucose at pH 7.4. After 5 days medium glucose was determined by standard methodology and the pH of the medium was measured with a pH meter.
Because it was repeatedly observed that AS-7 by itself decreased the pH of the culture medium, it was hypothesized that AS-7 might stimulate glucose utilization and the production of lactic acid, which is a major acidic product of glucose metabolism. HeLa cells were cultured in 100 millimeter diameter tissue culture plates in order to monitor the pH and the glucose concentration of the culture medium. Glucose was quantified with a glucose test strip and meter, as commonly used to monitor fluctuations in blood glucose. A pH meter was used to record the pH of the medium. Control cultures (“Control”) were treated with the appropriate amount of the vehicle used dissolve AS-7. Treated cultures (“AS-7”) incubated with 10 μM AS-7.

ovarian A2780 cells [4] = assay: Crystal violet cell viability of ovarian A2780 cells, bortezomib with or without AS-7 (72 hours); type: cell-based, human; conditions: A2780 cells; 10 μM AS-7
Experimental: Ovarian tumor-derived cell lines, IGROV and A2780, were seeded in a 96 well tissue culture plate (2000 cells per well). The compounds, 10 μM AS-7 and bortezomib (BioVision, Inc., Milpitas, Calif.) at the concentrations indicated in the figures, were added the following day. AS-7 was prepared as described in Example I above. […] Values are relative to cells that with the vehicle in which the drugs were dissolved. Vehicle had no effect on cell viability. Error bars in FIG. 6 and FIG. 7 are not shown if they are smaller than the symbols.

HeLa cells [5] = assay: MTS cell viability of HeLa cells treated with anticancer drug with or without AS-7 (48 hours); type: cell-based, human; conditions: for Dose Reduction Index (DRI), combination of AS-7 with bortezomib: CalcuSyn
Experimental: HeLa cells were seeded in a 96 well tissue culture plate (2000 cells per well). The compounds, 10 μM AS-7 and bortezomib (BioVision, Inc., Milpitas, Calif.) at the concentrations indicated in FIG. 1, were added the following day. AS-7 was prepared according to the Ugi reaction by combination of the four components: isocyanide (III), m-cyanobenzaldehyde (IV), 2-benzoylbenzoic acid (V), and histamine (VI) in refluxing methanol (Ref. http://www.occhem.com/synthesis/2561 2.html). The Medicinal Chemistry unit of Southern Research Institute (2000 Ninth Avenue South Birmingham, Ala. 35205) was contracted by a fee for service agreement to synthesize AS-7.
After 48 hours, MTS (3-(4,5-dimethylthiazol-2-yl)-5-(3-carboxymethoxyphenyl)-2-(4-sulfophenyl)-2H-tetrazolium) was added and absorbance was measured at 490 nm. […] Values in FIG. 1 are relative to controls that contained only the vehicle in which the drugs were dissolved. Vehicle had no effect on cell viability. Error bars in FIG. 1 are not visible if they are smaller than the symbols. […]
as §2, with “HeLa” for “Melanoma A2620”, “9” for “8”, “day. After 48 hours, MTS was added and absorbance was measured at 490 nm.” for “day.”

ovarian A2780 cells [6] = assay: Cell proliferation (growth rate, crystal violet) of ovarian A2780 cells with AS-7 by itself; type: cell-based, human; conditions: 10 μM AS-7, vehicle doubling time 1.0 days
Experimental: as §1

proteasome = assay: Proteasome activity measured in lysates of treated cells; type: cell-based
Source text: The cytotoxic action of bortezomib is known to be mediated by proteasome inhibition and the induction of apoptosis.

[7] = tested on: Multiple myeloma cells (RPMI 8226); assay: MTS cell viability of multiple myeloma cells treated with bortezomib with or without AS-7; type: cell-based
Experimental: Multiple myeloma cells (RPMI 8226) were seeded in a 96 well tissue culture plate (2000 cells per well). The compounds, 10 μM AS-7 and bortezomib at the concentrations indicated in […], were added the following day. AS-7 was prepared as described in Example I above. After 48 hours, MTS was added and absorbance was measured at 490 nm. […] Values in FIG. 2 are relative controls that contained only the vehicle in which the drugs were dissolved. Vehicle had no effect on cell viability. Error bars in FIG. 2 are not visible if they are smaller than the symbols.

N#Cc1cccc(C(C(=O)NCC(c2ccccc2)c2ccccc2)N(CCc2c[nH]cn2)C(=O)c2ccccc2C(=O)c2ccccc2)c1 (centres unmarked) [AS-7]
potentiation of the cytotoxic action of bortezomib (T47D cells): markedly potentiated
increase of doubling time (Melanoma A2620 cells [1]): 1.3 fold
increase in potency of the cytotoxic action of bortezomib by AS-7 (Melanoma A2620 cells [2]): approximately three
glucose concentration of the culture medium relative to control (HeLa cells [3]): significantly decreased
pH of the culture medium relative to control (HeLa cells [3]): significantly decreased
increase in potency of the cytotoxic action of bortezomib by AS-7 (ovarian A2780 cells [4]): approximately 3.1 fold
shift of NLVS concentration dependence (HeLa cell viability) (HeLa cells [5]; 10 μM AS-7, 48 hours, MTS): markedly shifted the NLVS concentration dependence to the left
HeLa cell viability (HeLa cells [5]; AS-7 alone): no loss of cell viability
Dose Reduction Index (DRI), combination of AS-7 with bortezomib (HeLa cells [5]; HeLa cells, 12 nM bortezomib): 7.3
Dose Reduction Index (DRI), combination of AS-7 with bortezomib (HeLa cells [5]; HeLa cells, 16 nM bortezomib): 18
Dose Reduction Index (DRI), combination of AS-7 with bortezomib (HeLa cells [5]; HeLa cells, 20 nM bortezomib): 72
increase in potency of the cytotoxic action of bortezomib by AS-7 (HeLa cells [5]; HeLa cells, 10 μM AS-7): approximately 3.5 fold
increase of doubling time (ovarian A2780 cells [6]): 1.6 fold
effect on proteasome activity (proteasome; cells treated with 10 ILIM AS-7 alone for various times): no effect
effect of AS-7 on proteasome inhibition by bortezomib (proteasome; data not shown): did not increase
potentiation of the cytotoxic action of bortezomib (loss of multiple myeloma cell viability) ([7]; 10 μM AS-7, 48 hours, MTS): markedly potentiates
increased potency of the cytotoxic action of bortezomib upon the addition of AS-7 ([7]; FIG. 2 as printed (multiple myeloma cells)): approximately 3.5 fold
